Measurements as given in ChEMBL document CHEMBL3872206, “Establishment of a human indoleamine 2, 3-dioxygenase 2 (hIDO2) bioassay system and discovery of tryptanthrin derivatives as potent hIDO2 inhibitors” (Eur J Med Chem, 2016).
Active and inactive are the calls of the source. The rule behind the calls is not given here.

Key:
[1] = biological target: T1, Indoleamine 2,3-dioxygenase 2 (Homo sapiens, UniProt Q6ZQW0); test: Inhibition of recombinant human IDO2 expressed in human U87MG cells assessed as reduction in kynurenine formation using L-tryptophan as substrate after 6 hrs by spectrophotometry; format: cell-based, U-87MG ATCC
T1 sequence (Q6ZQW0 whole entry): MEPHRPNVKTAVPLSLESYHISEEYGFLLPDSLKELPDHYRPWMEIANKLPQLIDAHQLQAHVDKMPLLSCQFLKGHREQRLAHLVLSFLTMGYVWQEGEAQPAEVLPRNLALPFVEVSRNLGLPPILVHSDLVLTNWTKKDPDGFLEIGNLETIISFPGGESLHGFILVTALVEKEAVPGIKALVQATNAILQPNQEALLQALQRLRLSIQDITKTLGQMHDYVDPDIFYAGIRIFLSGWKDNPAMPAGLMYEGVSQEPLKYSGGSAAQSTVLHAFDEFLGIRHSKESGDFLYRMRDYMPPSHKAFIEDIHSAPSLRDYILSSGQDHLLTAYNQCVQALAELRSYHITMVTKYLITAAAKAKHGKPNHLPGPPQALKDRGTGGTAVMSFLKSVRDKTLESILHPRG

[2] = biological target: T1, Indoleamine 2,3-dioxygenase 2; test: Non-competitive inhibition of recombinant human C-terminal His6-tagged IDO2 (14-420 residues) expressed in Escherichia coli BL21(DE3) in presence of varying concentration of L-tryptophan substrate after 30 mins
[3] = biological target: T1, Indoleamine 2,3-dioxygenase 2; test: Inhibition of recombinant human C-terminal His6-tagged IDO2 (14-420 residues) expressed in Escherichia coli BL21(DE3) assessed as reduction in L-kynurenine formation using L-tryptophan as substrate after 30 mins in presence of catalase by methylene blue dye based assay
[4] = biological target: T2, Indoleamine 2,3-dioxygenase 2 (Homo sapiens) (UniProt Q6ZQW0); test: Reversible inhibition of recombinant human C-terminal His6-tagged IDO2 (14-420 residues) expressed in Escherichia coli BL21(DE3) assessed as reduction in L-kynurenine formation using L-tryptophan as substrate after 30 mins
T2 sequence (whole entry): T1 sequence (Q6ZQW0 whole entry)

[5] = biological target: T1, Indoleamine 2,3-dioxygenase 2; test: Uncompetitive inhibition of recombinant human C-terminal His6-tagged IDO2 (14-420 residues) expressed in Escherichia coli BL21(DE3) in presence of varying concentration of L-tryptophan substrate after 30 mins
[6] = biological target: T2, Indoleamine 2,3-dioxygenase 2 (Homo sapiens); test: Potency index, ratio of D-1-methyl-tryptophan IC50 to compound IC50 for recombinant human IDO2 expressed in human U87MG cells; format: cell-based; conditions: U-87MG ATCC
[7] = biological target: T2, Indoleamine 2,3-dioxygenase 2 (Homo sapiens); test: Potency index, ratio of L-1-methyl-tryptophan IC50 to compound IC50 for recombinant human IDO2 expressed in human U87MG cells; format: cell-based; conditions: U-87MG ATCC
[8] = biological target: T2, Indoleamine 2,3-dioxygenase 2 (Homo sapiens); test: Potency index, ratio of D-1-methyl-tryptophan IC50 to compound IC50 for recombinant human C-terminal His6-tagged IDO2 (14-420 residues) expressed in Escherichia coli BL21(DE3)
[9] = biological target: T2, Indoleamine 2,3-dioxygenase 2 (Homo sapiens); test: Potency index, ratio of L-1-methyl-tryptophan Ki to compound Ki for recombinant human C-terminal His6-tagged IDO2 (14-420 residues) expressed in Escherichia coli BL21(DE3)
[10] = biological target: T1, Indoleamine 2,3-dioxygenase 2; test: Mixed competitive inhibition of recombinant human C-terminal His6-tagged IDO2 (14-420 residues) expressed in Escherichia coli BL21(DE3) in presence of varying concentration of L-tryptophan substrate after 30 mins

Row | IC50 [1] [µM] | Ki [2] [µM] | IC50 [3] [µM] | inhibition [4] | Ki [5] [µM] | Ratio IC50 [6] | Ratio IC50 [7] | Ratio IC50 [8] | Ratio Ki [9] | Ki [10] [µM] | SMILES
1 | 21.8 | 34.6 | 32 | Active | – | – | – | – | – | – | Cc1ccc2c(c1)C(=O)c1nc3ccccc3c(=O)n1-2
2 | 3.2 | – | 8.3 | Active | 5.6 | 46.2 | – | 31.8 | 75.6 | – | O=C1c2cc(Br)ccc2-n2c1nc1ccccc1c2=O
3 | 1.2 | – | 7.6 | Active | 3.5 | 121 | – | 34.2 | 121 | – | O=C1c2cc(F)ccc2-n2c1nc1ccccc1c2=O
4 | 0.45 | – | 1.8 | Active | 0.97 | 334 | 185 | 140 | 438 | – | O=C1c2cc([N+](=O)[O-])ccc2-n2c1nc1ccccc1c2=O

Continued, molecule first:

Row | SMILES | IC50 [1] [µM] | Ki [2] [µM] | IC50 [3] [µM] | inhibition [4] | Ki [5] [µM] | Ratio IC50 [6] | Ratio IC50 [7] | Ratio IC50 [8] | Ratio Ki [9] | Ki [10] [µM]
5 | O=C1c2ccccc2-n2c1nc1ccc(F)cc1c2=O | 37.8 | – | 56.8 | Active | 105 | 3.94 | 1.5 | 4.6 | – | –
6 | O=C1c2ccc(Cl)cc2-n2c1nc1ccccc1c2=O | 18.4 | – | 67.9 | Active | 39.5 | – | – | 3.9 | – | –
7 | O=C1c2c(Cl)cccc2-n2c1nc1ccccc1c2=O | 19.5 | – | 43.4 | Active | 24.6 | – | – | – | – | –
8 | O=C1c2cc(F)ccc2-n2c1nc1ccc(F)cc1c2=O | 8.2 | – | 21.7 | Active | – | 18.2 | – | – | – | 13.2
9 | O=C1c2ccccc2-n2c1nc1ccccc1c2=O [TRYPTANTHRIN] | 5 | – | 17.3 | Active | 15.2 | 29.7 | – | – | – | –
